Assay results: ChEMBL document CHEMBL3603785, “Discovery and Optimization of 4-(8-(3-Fluorophenyl)-1,7-naphthyridin-6-yl)transcyclohexanecarboxylic Acid, an Improved PDE4 Inhibitor for the Treatment of Chronic Obstructive Pulmonary Disease (COPD)” (J Med Chem, 2015)
≈ marks a conversion by molar mass, not a printed value.

Key:
[1] = Thermodynamic aqueous solubility of the compound at pH 6.8; assay type: physicochemical; conditions: for solubility thermodynamic: aqueous, read-out: Therm_solubility; for Therm_solubility: buffer
Rattus norvegicus [2] = test: AUC in rat at 4.2 uM/kg, po; assay type: ADME, organism-based; conditions: in vivo
[3] = High throughput kinetic solubility of the compound at pH 6.8; assay type: physicochemical; conditions: buffer, read-out: Kinetic_solubility
Rattus norvegicus [4] = test: Oral bioavailability in rat at 2.1 uM/kg; assay type: ADME, organism-based; conditions: in vivo
Rattus norvegicus [5] = test: AUC in rat at 2.1 uM/kg, po; assay type: ADME, organism-based; conditions: in vivo
[6] = biological target: 3',5'-cyclic-AMP phosphodiesterase 4D (Homo sapiens, UniProt Q08499); test: Inhibition of human PDE4D
Rattus norvegicus [7] = test: Volume of distribution at steady state in rat at 1.05 uM/kg, iv; assay type: ADME, organism-based; conditions: in vivo
Rattus norvegicus [8] = test: Half life in rat at 1.05 uM/kg, iv; assay type: ADME, organism-based; conditions: in vivo
Rattus norvegicus [9] = test: AUC in po dosed rat; assay type: ADME, organism-based; conditions: in vivo
Rattus norvegicus [10] = test: Half life in po dosed rat; assay type: ADME, organism-based; conditions: in vivo

3',5'-cyclic-AMP phosphodiesterase 4D, sequence (Q08499 whole entry): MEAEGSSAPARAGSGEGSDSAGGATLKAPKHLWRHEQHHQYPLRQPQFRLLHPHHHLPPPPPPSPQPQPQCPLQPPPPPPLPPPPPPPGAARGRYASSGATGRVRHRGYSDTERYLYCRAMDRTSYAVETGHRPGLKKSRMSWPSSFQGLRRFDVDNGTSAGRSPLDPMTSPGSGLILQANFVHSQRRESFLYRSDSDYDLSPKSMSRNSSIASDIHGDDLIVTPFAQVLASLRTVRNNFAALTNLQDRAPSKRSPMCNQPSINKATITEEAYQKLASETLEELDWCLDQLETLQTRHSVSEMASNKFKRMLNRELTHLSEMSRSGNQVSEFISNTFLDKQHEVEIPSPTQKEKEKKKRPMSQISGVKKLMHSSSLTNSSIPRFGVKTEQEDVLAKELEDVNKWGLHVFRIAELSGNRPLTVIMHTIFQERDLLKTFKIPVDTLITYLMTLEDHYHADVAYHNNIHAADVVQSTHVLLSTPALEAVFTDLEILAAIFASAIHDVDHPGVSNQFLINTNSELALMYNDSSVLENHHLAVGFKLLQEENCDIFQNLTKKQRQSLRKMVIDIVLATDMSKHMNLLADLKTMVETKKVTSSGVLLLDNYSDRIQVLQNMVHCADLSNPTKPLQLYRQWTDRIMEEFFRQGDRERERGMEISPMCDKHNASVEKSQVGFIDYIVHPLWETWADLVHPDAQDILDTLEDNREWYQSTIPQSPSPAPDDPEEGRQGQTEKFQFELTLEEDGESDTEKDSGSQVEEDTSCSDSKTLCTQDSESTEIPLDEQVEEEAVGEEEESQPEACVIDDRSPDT

| SMILES | solubility thermodynamic [1] | solubility kinetic [3] | IC50 [6] | other results |
| --- | --- | --- | --- | --- |
| O=C(O)C1CCN(c2cc3cccnc3c(-c3cccc(F)c3)n2)CC1 | > 4 µg/mL | > 70 µg/mL |  | AUC (Rattus norvegicus [2]): 3919 µM/min |
| N#Cc1cccc(-c2nc(N3CCC(C(=O)O)CC3)cc3cccnc23)c1 | > 4 µg/mL | 20 µg/mL (≈ 55.8 µM) |  | F (Rattus norvegicus [4]): 157.5%; AUC (Rattus norvegicus [5]): 2768 µM/min |
| COc1cccc(-c2nc([C@H]3CC[C@H](C(=O)O)CC3)cc3cccnc23)c1 |  | 20 µg/mL (≈ 55.2 µM) |  | Therm_solubility [1]: 0.15 µg/mL |
| O=C(O)[C@H]1CC[C@H](c2cc3cccnc3c(-c3cccc(F)c3)n2)CC1 |  | 10 µg/mL (≈ 28.5 µM) |  | Therm_solubility [1]: 0.92 µg/mL; AUC (Rattus norvegicus [5]): 4408 µM/min |
| N#Cc1cccc(-c2nc([C@H]3CC[C@H](C(=O)O)CC3)cc3cccnc23)c1 |  | 20 µg/mL (≈ 56 µM) |  | Therm_solubility [1]: 0.43 µg/mL; AUC (Rattus norvegicus [2]): 112900 µM/min |
| O=C(O)[C@H]1CC[C@H](c2cc3cccnc3c(-c3cccc(Cl)c3)n2)CC1 | 0.14 µg/mL (≈ 0.382 µM) | 100 µg/mL (≈ 273 µM) | 30 nM |  |
| N#Cc1cccc(-c2nc(N3CCC(C(N)=O)CC3)cc3cccnc23)c1 |  |  | 8 nM | Vdss (Rattus norvegicus [7]): 2.9 L/kg; t1/2 (Rattus norvegicus [8]): 8 min |
| N#Cc1cccc(-c2nc(N3CCC(CO)CC3)cc3cccnc23)c1 |  |  | 13 nM |  |
| N#Cc1cccc(-c2nc(N3CCC(O)CC3)cc3cccnc23)c1 |  |  | 22 nM |  |
| N#Cc1cccc(-c2nc(N3CCOCC3)cc3cccnc23)c1 |  |  | 3 nM |  |
| O=C(O)c1ccc(-c2cc3cccnc3c(-c3ccc4nonc4c3)n2)cc1 | 2.3 µg/mL (≈ 6.24 µM) |  |  | AUC (Rattus norvegicus [9]): 523 µM/min; t1/2 (Rattus norvegicus [10]): 12 min |
